Source: patent publication US8119609B2, “Methods of treating diabetic retinopathy with pericyte apoptosis inhibitors” (Merck Sante, priority 2000, dated 2012)
Values joined by “and” are separate entries in the source; they are usually repeats but may differ in a detail not shown here. Equal entries are not always repeated. “Also recorded” adds a separate entry of the source. Values belong to the compound of their own block, whether it stands above or below them.

How the values were obtained:
[1] = system: retina of diabetic rats; details: cited from earlier work; for loss / disappearance of pericytes in the retina of diabetic rats: literature
[2] = system: bovine retinal pericytes; assay: Apoptosis of bovine retinal pericytes cultured with AGE-methylglyoxal, annexin V / propidium iodine staining; assay type: cell-based
Description: The effects of AGE were tested on a uniform batch of cells (bovine retinal pericytes stemming from the same primary culture). When they were at confluence, the bovine retinal pericytes in primary culture were trypsinated. After having allowed them to become attached for 4 hours at 37° C., the medium and the cell debris that had not adhered to the matrix were eliminated and the culture medium (10% of FCS for bovine retinal pericytes) was added. An AGE solution (or its control) was added to the culture medium until reaching a concentration of […] to test the effects of AGE. The cultures were then continued for 1 or 2 passages with the agents, either for 7 or 15 days, respectively, for the bovine retinal pericytes.
Apoptosis was detected and quantified in pericytes cultured during two passages with 2 μM of AGE-methylglyoxal or its control using the technique based on detecting apoptotic cells with annexin V and detecting necrotic cells with propidium iodine.
The presence of phosphatidylserine (PS) on the external layer of the plasma membrane, which is characteristic of apoptotic cells, can be detected using annexin V labeled with fluorescein. This protein has a very strong affinity for PS. Staining is performed in the presence of an intercalating DNA dye, propidium iodine, similar to ethidium bromide to distinguish the apoptotic cells from possibly present necrotic cells which also fix annexin V. For this labeling the pericytes must be subconfluent (75% of confluence) and, thus, cultured for only about 12 days with AGE-methylglyoxal or BSA control.
The bovine retinal pericytes (dish 3.5 cm in diameter) were rinsed three times with PBS then incubated for 10 minutes in the dark with 500 μl of a HEPES buffer containing 10 μl of the fluorescein-labeled annexin V solution and 10 μl of the propidium iodine solution provided in the determination kit. The apoptotic cells as well as the necrotic cells fixed the annexin V and thus appeared green under the fluorescence microscope, but only the nuclei of the necrotic cells were dyed red by the propidium iodine. The percentages of necrotic cells and apoptotic cells were determined on 10 different fields, i.e., on a total of 300 to 800 cells.
Apoptosis was detected and quantified by labeling with annexin V and propidium iodine in bovine retinal pericytes during two passages with 2 μM of AGE-methylglyoxal or their control (see Material and Methods). […] Fluorescein-labeled annexin V stained green the plasma membranes of the apoptotic and necrotic cells, but only the necrotic cells whose cells had lost their integrity, were permeable to propidium iodide which stained their nuclei red. […] The cells were cultured during two passages (approximately 15 days) in the presence of 2 μM of AGE-methylglyoxal or control BSA. The results are expressed as % of apoptotic cells in the total cell population.

[3] = system: bovine retinal pericytes; assay: Determination of ceramides and diacylglycerols (DAG) in pericytes cultured with AGE-methylglyoxal (DAG-kinase, 32P-ATP); assay type: cell-based; details: for % inhibition of the stimulated production of DAG induced by AGE-methylglyoxal / % inhibition of the stimulated production of ceramides induced by AGE-methylglyoxal: two passages
Description: The ceramides and diacylglycerols were measured in the pericytes cultured during two passages with […] of AGE-methylglyoxal or their control according to the method described by Preiss et al. (1986). This method is based on the phosphorylation of the ceramides and DAG by purified diacylglycerol kinase (DAG-kinase) from Escherichia coli in the presence of ATP labeled with ^32P on the γ phosphor in accordance with the diagram shown in FIG. 3.
The pericytes (2 or 3 dishes, 6 cm in diameter) were rinsed, recovered by scraping with a rubber policeman in 0.5 ml of water on ice and the dish rinsed by a supplementary 0.5 ml (volume of 1 ml of cell suspension) to which was added 10 μl of a solution of (9,10-^3H)-triacylglycerol at 0.5 μCi/ml.
The total lipids were then extracted by the method of Bligh and Dyer (1959). To this cell suspension (1 ml of PBS) was added 3.75 ml of a chloroform: methanol (2:1, v/v) mixture containing 80 μl of BHT (5 mM) in solution in ethanol. The solutions were then vortexed for 30 seconds and allowed to stand for a minimum of 30 minutes, then 1.25 ml of NaCl (0.9%) and 1.25 ml of chloroform were added to separate the phases. After centrifugation (700 g, 5 minutes), the bottom organic phase was collected and extraction of the aqueous phase was repeated twice with 1.5 ml of chloroform. The lipid extracts were then collected and the chloroform evaporated under a nitrogen stream. The aqueous phase enabled determination of the total proteins by staining with amide black and the organic phase was recovered in an Eppendorf tube then evaporated under nitrogen.
A standard range of ceramides (25 to 2500 ng) and DAG (25 to 25,000 ng) containing the same quantity of tritium-labeled triacylglycerol was prepared in parallel. The lipids were then solubilized in 20 μl of a solution of detergents (7.5% of n-octylglucopyranoside, […] and 1 mM of DETAPAC) by 1 minute of sonication followed by incubation for 15 minutes at ambient temperature. The reaction was started by addition of 50 μl of reaction buffer (imidazole 100 mM, NaCl 100 mM, MgCl2 25 mM, EGTA 2 mM, pH 6.6), 20 μl of a solution of DAG-kinase (4.86 mU) containing 10 mM of DTT and 10 μl of [γ-^32P] ATP at 5 mCi/ml diluted 10-fold in a solution containing 10 mM of unlabeled ATP, 100 mM of imidazole and 1 mM of DETAPAC (pH 6.6). The reaction was allowed to continue for 1 hour at ambient temperature and then stopped by 1 ml of the mixture chloroform:methanol: 1N hydrochloric acid (100:100:1, v/v/v), 170 μl of a buffer containing 10 mM of HEPES, 135 mM of NaCl, 1.5 mM of CaCl2, 0.5 mM of MgCl2 and 5.6 mM of glucose (pH 7.4) then 30 μl of EDTA 100 mM. The mixture was then vortexed, allowed to stand for 15 minutes at ambient temperature, then centrifuged (10,000 g, 5 minutes) at ambient temperature.
The organic phase (bottom) was collected and evaporated under nitrogen. The lipids were then taken up with 300 μl of the mixture ether:methanol (9:1, v/v) and deposited on a silica plate. The ceramides-1-phosphate were separated from the phosphatidic acid and triacylglycerols using the mixture chloroform:methanol: acetic acid (65:15:5, v/v/v) as migration solvent.
Exposure of the silica plate to an autoradiographic film (30 minutes, 80° C.) allowed visualization of the different ^32P-labeled lipids. The spots corresponding to the ceramides-1-phosphate and phosphatidic acid as well as the last 3 cm before the migration front (corresponding to the triacylglycerols) were delimited with a graphite crayon and scratched. The silica was recovered in counting pots, moistened with 200 μl of methanol, 200 μl of distilled water and 2 ml of scintillation liquid (Picofluor) for 2 hours before the addition of 8 ml of the scintillation liquid. The radioactivity emitted by the ^32P or the ^3H was then counted in each pot. The radioactivity emitted by the mother solution of (9,10-^3H)-triacylglycerol was also counted which allowed calculation of the reaction yield for each sample. […]

[4] = 10 μM, listed as Nα-acetyl-cysteine
[5] = 50 μM, listed as Nα-acetyl-cysteine

Compound: Cc1c(C)c2c(c(C)c1O)CCC(C)(C(=O)O)O2 (centres unmarked) [trilox]
loss / disappearance of pericytes in the retina of diabetic rats [1]: prevent

baseline levels of the ceramides and DAG in the cells cultured with BSA control ([3]; 1 μM (results not shown)): affected
Compound: CNCCCN1c2ccccc2CCc2ccccc21 [desipramine, 10,11-dihydro-5-(3-(methylamino)propyl)-5H-dibenz(b,f)azepine]
% inhibition of the apoptosis induced by AGE-methylglyoxal ([2]; 0.3 μM (b168 prints 0.3 mM), two passages): 50%
baseline apoptosis rate of the control cells ([2]; 1 μM (results not shown)): affected
inhibition at 0.1 µM ([2]; Bos taurus, 0.1 μM, two passages, read-out: % inhibition of the apoptosis induced by AGE-methylglyoxal): 35%
inhibition at 0.3 µM ([2]; Bos taurus, 0.3 μM (b168 prints 0.3 mM), two passages, read-out: % inhibition of the apoptosis induced by AGE-methylglyoxal): 35%
% inhibition of the stimulated production of DAG induced by AGE-methylglyoxal ([3]; 0.1 μM): 17%
% inhibition of the stimulated production of ceramides induced by AGE-methylglyoxal ([3]; 0.1 μM): 78%
% inhibition of the stimulated production of DAG induced by AGE-methylglyoxal ([3]; 0.3 μM): 13%
% inhibition of the stimulated production of ceramides induced by AGE-methylglyoxal ([3]; 0.3 μM): 95%

% inhibition of the stimulated production of DAG induced by AGE-methylglyoxal ([3]; 50 μM): not affected
% inhibition of the stimulated production of ceramides induced by AGE-methylglyoxal ([3]; 50 μM): not affected
Compound: z-DEVD-fmk
% inhibition of the apoptosis induced by AGE-methylglyoxal ([2]; 50 μM, two passages): almost total inhibition

% inhibition of the stimulated production of DAG induced by AGE-methylglyoxal ([3]; 50 μM): 100%
% inhibition of the stimulated production of ceramides induced by AGE-methylglyoxal ([3]; 50 μM): 75%
Compound: z-VAD-fmk
% inhibition of the apoptosis induced by AGE-methylglyoxal ([2]; 50 μM, two passages): almost total inhibition

Compound: CC1=C(/C=C/C(C)=C/C=C/C(C)=C/C=C/C=C(C)/C=C/C=C(C)/C=C/C2=C(C)C[C@@H](O)CC2(C)C)C(C)(C)C[C@H](O)C1 [zeaxanthin]
% inhibition of the apoptosis induced by AGE-methylglyoxal ([2]; 2 μM, two passages): 50%

Compound: N=C(N)NN [aminoguanidine]
loss / disappearance of pericytes in the retina of diabetic rats [1]: prevents
reduction of the number of acellular capillaries in the retina ([1]; streptozotocin diabetic rat model (Hammes et al., 1991)): 80%

Compound: O=c1c2ccccc2[se]n1-c1ccccc1 [ebselen]
inhibition at 5 µM ([2]; Bos taurus, 5 μM, two passages, read-out: % inhibition of the apoptosis induced by AGE-methylglyoxal): 94%
inhibition at 10 µM ([2]; Bos taurus, 10 μM, two passages, read-out: % inhibition of the apoptosis induced by AGE-methylglyoxal): 88%

% inhibition of the stimulated production of DAG induced by AGE-methylglyoxal ([3]; 9.4 μM): 80%
% inhibition of the stimulated production of ceramides induced by AGE-methylglyoxal ([3]; 9.4 μM): 95%
% inhibition of the stimulated production of DAG induced by AGE-methylglyoxal ([3]; 30 μM): 65%
% inhibition of the stimulated production of ceramides induced by AGE-methylglyoxal ([3]; 30 μM): complete inhibition
Compound: S=C(S)OC1CC2CC1C1CCCC21 (centres unmarked) [D609]
% inhibition of the apoptosis induced by AGE-methylglyoxal ([2]; 9.4 μM, two passages): 40%
% inhibition of the apoptosis induced by AGE-methylglyoxal ([2]; 30 μM, two passages): 47% and 50%

Compound: CCCC[C@@H](C)[C@@H](OC(=O)C[C@@H](CC(=O)O)C(=O)O)[C@H](C[C@@H](C)C[C@H](O)CCCC[C@@H](O)C[C@H](O)[C@H](C)N)OC(=O)C[C@@H](CC(=O)O)C(=O)O [fumonisin B1]
% inhibition of the apoptosis induced by AGE-methylglyoxal ([2]; 0.01 μM, two passages): 22%
% inhibition of the apoptosis induced by AGE-methylglyoxal ([2]; 0.01 μM, two passages, listed as Fumonisin B1, 0.01 µM): 20%
effect on the base apoptosis rate of cells cultured in BSA control ([2]; 0.1 μM (results not shown)): proapoptotic

Compound: z-VDVAD-fmk
% inhibition of the apoptosis induced by AGE-methylglyoxal ([2]; 50 μM, two passages): partial inhibition
% inhibition of the apoptosis induced by AGE-methylglyoxal ([2]; 50 μM, two passages, listed as z-VDVAD): partially inhibits

% inhibition of the stimulated production of DAG induced by AGE-methylglyoxal ([3]; 50 μM): not affected
% inhibition of the stimulated production of ceramides induced by AGE-methylglyoxal ([3]; 50 μM): not affected
Compound: z-LEHD-fmk
% inhibition of the apoptosis induced by AGE-methylglyoxal ([2]; 50 μM, two passages): almost total inhibition

% inhibition of the stimulated production of DAG induced by AGE-methylglyoxal [3, 4]: normalized
% inhibition of the stimulated production of ceramides induced by AGE-methylglyoxal [3, 4]: normalized
% inhibition of the stimulated production of DAG induced by AGE-methylglyoxal [3, 5]: normalized
% inhibition of the stimulated production of ceramides induced by AGE-methylglyoxal [3, 5]: normalized
Compound: CC(=O)N[C@@H](CS)C(=O)O [N-acetyl-L-cysteine, Nα-acetyl-L-cysteine]
% inhibition of the apoptosis induced by AGE-methylglyoxal ([2]; 10 μM, two passages): protected the pericytes against the apoptosis; also recorded: complete inhibition
% inhibition of the apoptosis induced by AGE-methylglyoxal ([2]; 10 μM, two passages, listed as Nα-acetyl-cysteine): normalized
% inhibition of the apoptosis induced by AGE-methylglyoxal ([2]; 50 μM, two passages): protected the pericytes against the apoptosis
% inhibition of the apoptosis induced by AGE-methylglyoxal ([2]; 50 μM, two passages, listed as Nα-acetyl-cysteine): normalized

Compound: Nc1ncc(-c2ccc(O)cc2)nc1Cc1ccccc1 [coelenteramine]
% inhibition of the apoptosis induced by AGE-methylglyoxal ([2]; 2 μM, two passages): 60% and ~50%
